32 substances from patent US10517889B2, “Modulators of SMAD7 expression” (Ionis Pharmaceuticals, Inc., priority 2017, dated 2019) can be followed below.

Strand notation (5' to 3'): a small letter for the sugar, then the base; units joined by * are phosphorothioate-linked, units joined directly phosphodiester-linked; [ ] holds rarer units or linkages, { } end groups; capitals alone tell only the bases. e = 2'-O-(2-methoxyethyl) (MOE); [5mC] = 5-methylcytosine; d = 2'-deoxy (DNA)

The subject of the data set is human SMAD7 mRNA. As to the kind of experiment: Antisense inhibition of human SMAD7 mRNA expression in Hep3B cells by 5-10-5 MOE gapmers, single concentration, electroporation, RT-PCR (Example 1, Study 1 and 2). Format: cell-based. Put shortly: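 Hep3B cells (20,000/well) electroporated with 5-10-5 MOE gapmer at 5,000 nM or 15,000 nM for approximately 24 h. SMAD7 mRNA quantified by real-time PCR with primer probe set RTS5062 and normalized to RIBOGREEN total RNA. Values are percent inhibition relative to untreated controls.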

Setting [1] is: Study 2, electroporation with 15,000 nM antisense oligonucleotide, 5-10-5 MOE gapmers targeting SEQ ID NO: 1 and 2.
The mark [2] stands for this setting: electroporation, 15,000 nM, approximately 24 hours, relative to untreated control cells, gapmers targeting SEQ ID NO: 1 and 2.
[3] abbreviates: electroporation, 15,000 nM antisense oligonucleotide (Study 2), 5-10-5 MOE gapmers targeting SEQ ID NO: 1 and 2.

With “771828 (antisense eG*e[5mC]*e[5mC]*e[5mC]*eT*dA*dG*dA*dA*d[5mC]*dT*dT*dG*dG*dG*e[5mC]*eA*eA*eG*eG) [compound 771828]”, the “% Inhibition” value under setting [1] came out at 8%.

For “771402 (antisense e[5mC]*eA*eG*eG*e[5mC]*dG*d[5mC]*dA*dG*dG*d[5mC]*dG*dA*d[5mC]*dA*eG*e[5mC]*eA*eG*e[5mC]) [compound 771402]”, the “% Inhibition” value under setting [1] is 31%.

For the substance “771628 (antisense e[5mC]*e[5mC]*eA*eG*eG*dG*dA*d[5mC]*dA*dT*d[5mC]*d[5mC]*d[5mC]*d[5mC]*dG*e[5mC]*eT*eT*eG*e[5mC]) [compound 771628]”, the “% inhibition of SMAD7 mRNA expression” value under setting [1] came to 12%.

“771819 (antisense eA*eA*eT*eA*eG*dT*dT*dT*dT*d[5mC]*dT*d[5mC]*dT*d[5mC]*dA*eA*eA*eT*eG*eT) [compound 771819]”: the “% Inhibition” value under setting [1] was 20%. For the same substance, under “electroporation, 5,000 nM, approximately 24 hours, relative to untreated control cells, gapmers targeting SEQ ID NO: 1 and 2”, the “% inhibition of SMAD7 mRNA expression” value is given as 56%.

Turning to “771486 (antisense e[5mC]*eG*eG*eT*eA*dA*dA*dG*d[5mC]*d[5mC]*d[5mC]*dG*dT*d[5mC]*d[5mC]*eA*e[5mC]*eG*eG*e[5mC]) [compound 771486]”, under setting [2], the “% inhibition of SMAD7 mRNA expression” value came out at 52%.

Take “771950 (antisense eA*eT*eG*e[5mC]*eA*dA*dA*dG*dG*dG*dA*d[5mC]*d[5mC]*d[5mC]*dT*eT*eA*eA*eT*eA) [compound 771950]”: under setting [1], the “% Inhibition” value is recorded as 0%.

Take “771494 (antisense e[5mC]*eA*eG*e[5mC]*eA*d[5mC]*dG*dG*dG*d[5mC]*dA*dG*d[5mC]*dT*dG*e[5mC]*eT*eG*eA*eT) [compound 771494]”: the “% inhibition of SMAD7 mRNA expression” value under setting [2] amounted to 20%.

“771605 (antisense eG*eG*e[5mC]*eT*eG*d[5mC]*d[5mC]*d[5mC]*d[5mC]*dG*dG*d[5mC]*dA*dG*d[5mC]*e[5mC]*e[5mC]*eT*eT*eG) [compound 771605]”: under setting [2], the “% inhibition of SMAD7 mRNA expression” value was determined as 26%.

For the substance “771868 (antisense eG*eG*eA*eG*eG*d[5mC]*dA*dA*dA*dT*dT*d[5mC]*dA*dT*dA*eG*eA*e[5mC]*eA*eG) [compound 771868]”, the “% Inhibition” value under setting [1] is listed as 16%.

Take “771870 (antisense eA*eG*eG*e[5mC]*eA*d[5mC]*dA*dA*dG*dT*d[5mC]*dA*dA*dG*dG*eA*eG*eG*e[5mC]*e[5mC]) [compound 771870]”: the “% Inhibition” value under setting [1] came out at 15%.

As for “771541 (antisense eT*e[5mC]*eT*eT*eT*dT*d[5mC]*dA*dT*dA*dA*dG*d[5mC]*dT*dA*eT*eT*eT*e[5mC]*eT) [compound 771541]”, under setting [2], the “% inhibition of SMAD7 mRNA expression” value is on record as 35%.

For the substance “771854 (antisense eT*e[5mC]*e[5mC]*e[5mC]*e[5mC]*dG*d[5mC]*d[5mC]*dT*dT*dT*dT*d[5mC]*dT*dT*e[5mC]*e[5mC]*eT*eG*eG) [compound 771854]”, the “% Inhibition” value under setting [1] was determined as 9%.

Turning to “771914 (antisense eA*eT*eT*eT*eA*dG*dG*dA*dA*d[5mC]*dA*dA*dG*dG*dG*e[5mC]*eA*eA*eG*e[5mC]) [compound 771914]”, under setting [3], the “% inhibition of SMAD7 mRNA expression” value stood at 34%.

Take “483664 (antisense eT*eG*e[5mC]*eT*e[5mC]*dA*dG*d[5mC]*dT*d[5mC]*dA*d[5mC]*dG*d[5mC]*dT*e[5mC]*eT*eG*eT*e[5mC]) [compound 483664]”: the “% inhibition of SMAD7 mRNA expression” value under setting [3] was 36%.

Turning to “771526 (antisense eG*eT*eT*eT*eG*d[5mC]*dA*dT*dG*dA*dA*dA*dA*dG*d[5mC]*eA*eA*eG*e[5mC]*eA) [compound 771526]”, the “% inhibition of SMAD7 mRNA expression” value under setting [1] is 26%.

On to “771750 (antisense eG*eG*eA*e[5mC]*eA*dA*d[5mC]*dT*dT*dT*dT*d[5mC]*dA*dA*dG*eA*eA*e[5mC]*eT*e[5mC]) [compound 771750]”, for which the “% Inhibition” value under setting [1] is listed as 29%.

Consider “771922 (antisense eA*eA*eA*eT*eT*d[5mC]*d[5mC]*dT*dT*dT*dA*dA*dG*dG*dT*eG*eT*eT*eG*e[5mC]) [compound 771922]”, for which the “% inhibition of SMAD7 mRNA expression” value under setting [3] is given as 29%.

In the case of “771489 (antisense e[5mC]*eA*eA*eA*eG*d[5mC]*dT*dG*dA*dT*d[5mC]*dT*dG*d[5mC]*dA*e[5mC]*eG*eG*eT*eA) [compound 771489]”, the “% Inhibition of SMAD7 mRNA” value (electroporation with 15,000 nM antisense oligonucleotide (Study 2), 5-10-5 MOE gapmers targeting SEQ ID NO: 1 and 2) was determined as 34%. The “% inhibition of SMAD7 mRNA expression” value under setting [3] was found to be 27%.

“771480 (antisense eA*eG*e[5mC]*e[5mC]*eT*dT*dG*dA*dT*dG*dG*dA*dG*dA*dA*eA*e[5mC]*e[5mC]*eG*eG) [compound 771480]”: the “% inhibition of SMAD7 mRNA expression” value under setting [1] is 46%.

For “771749 (antisense eG*eA*eA*eA*eT*dG*dG*dA*dG*dT*dT*dA*d[5mC]*dT*dT*eG*eT*eT*eA*eA) [compound 771749]”, under setting [2], the “% inhibition of SMAD7 mRNA expression” value is reported as 29%.

With “771871 (antisense e[5mC]*eT*e[5mC]*e[5mC]*e[5mC]*dT*d[5mC]*dT*dG*d[5mC]*d[5mC]*d[5mC]*d[5mC]*dA*dG*eG*eA*eT*eT*e[5mC]) [compound 771871]”, under setting [1], the “% Inhibition” value was determined as 15%.

Regarding “771586 (antisense e[5mC]*e[5mC]*eT*eT*eG*dA*dT*dG*dA*dG*dG*dG*dA*dG*dA*eG*eG*eA*eG*eG) [compound 771586]”, under setting [3], the “% inhibition of SMAD7 mRNA expression” value worked out at 48%.

For the substance “771470 (antisense eG*e[5mC]*eA*e[5mC]*e[5mC]*dT*dT*d[5mC]*dT*dG*d[5mC]*dA*d[5mC]*d[5mC]*dA*eG*e[5mC]*eT*eG*eA) [compound 771470]”, under setting [2], the “% inhibition of SMAD7 mRNA expression” value is listed as 56%.

“771405 (antisense eA*eG*e[5mC]*eG*eA*dA*d[5mC]*dA*dT*dG*dA*d[5mC]*d[5mC]*dT*d[5mC]*e[5mC]*eG*e[5mC]*eA*e[5mC]) [compound 771405]”: the “% Inhibition” value under setting [1] amounted to 25%.

As to “771852 (antisense eA*eG*eA*eT*eT*dT*dA*dA*dA*dA*dT*dT*dA*dA*dA*eA*eA*eG*e[5mC]*eA) [compound 771852]”, the “% Inhibition” value under setting [1] is recorded as 0%.

In the case of “771789 (antisense e[5mC]*e[5mC]*e[5mC]*eA*eA*dA*dA*d[5mC]*dA*dG*dT*dG*dT*dA*d[5mC]*e[5mC]*e[5mC]*eT*e[5mC]*e[5mC]) [compound 771789]”, under setting [2], the “% inhibition of SMAD7 mRNA expression” value is recorded as 30%.

As to “771550 (antisense eT*eG*e[5mC]*eT*eT*d[5mC]*d[5mC]*d[5mC]*d[5mC]*dT*d[5mC]*dT*dT*d[5mC]*d[5mC]*eT*eA*eT*e[5mC]*eA) [compound 771550]”, under setting [1], the “% inhibition of SMAD7 mRNA expression” value amounted to 4%.

On to “771862 (antisense eT*e[5mC]*eT*eT*e[5mC]*d[5mC]*d[5mC]*d[5mC]*dA*dG*dA*dA*dA*dA*d[5mC]*eA*eG*e[5mC]*e[5mC]*e[5mC]) [compound 771862]”, for which the “% Inhibition” value under setting [1] amounted to 10%.

“771823 (antisense e[5mC]*eT*eT*e[5mC]*e[5mC]*d[5mC]*dA*dT*dG*dT*dG*dA*d[5mC]*d[5mC]*dT*e[5mC]*eA*eG*eG*eG) [compound 771823]”: the “% Inhibition” value under setting [1] was 49%.

As to “771772 (antisense eT*e[5mC]*e[5mC]*eT*e[5mC]*dA*dG*dG*dA*dA*d[5mC]*dA*dA*d[5mC]*dA*eA*eT*eG*e[5mC]*eT) [compound 771772]”, the “% Inhibition” value under setting [1] stood at 27%.

“771929 (antisense e[5mC]*eT*eT*eT*e[5mC]*d[5mC]*dA*dG*d[5mC]*dA*dA*dA*dA*d[5mC]*d[5mC]*eA*eT*eT*e[5mC]*eG) [compound 771929]”: the “% inhibition of SMAD7 mRNA expression” value under setting [3] was 0%.

Turning to “771351 (antisense e[5mC]*eT*e[5mC]*eT*e[5mC]*dT*dT*dT*dG*d[5mC]*d[5mC]*d[5mC]*d[5mC]*dA*dA*eA*eA*e[5mC]*eT*e[5mC]) [compound 771351]”, the “% Inhibition” value under setting [1] is on record as 11%.
